From ChEMBL document CHEMBL6134928, “Novel Bicyclic DGK Inhibitors for Treating Metastatic Melanoma” (ACS Med Chem Lett, 2025)

Target: Diacylglycerol kinase alpha (Homo sapiens, UniProt P23743)
Assay: Inhibition of recombinant human DGKalpha using DLG as substrate preincubated with compound followed by substrate addition and measured after 90 mins in presence of ATP by ADP-Glo reagent based analysis

Sequence of Diacylglycerol kinase alpha (P23743 whole entry): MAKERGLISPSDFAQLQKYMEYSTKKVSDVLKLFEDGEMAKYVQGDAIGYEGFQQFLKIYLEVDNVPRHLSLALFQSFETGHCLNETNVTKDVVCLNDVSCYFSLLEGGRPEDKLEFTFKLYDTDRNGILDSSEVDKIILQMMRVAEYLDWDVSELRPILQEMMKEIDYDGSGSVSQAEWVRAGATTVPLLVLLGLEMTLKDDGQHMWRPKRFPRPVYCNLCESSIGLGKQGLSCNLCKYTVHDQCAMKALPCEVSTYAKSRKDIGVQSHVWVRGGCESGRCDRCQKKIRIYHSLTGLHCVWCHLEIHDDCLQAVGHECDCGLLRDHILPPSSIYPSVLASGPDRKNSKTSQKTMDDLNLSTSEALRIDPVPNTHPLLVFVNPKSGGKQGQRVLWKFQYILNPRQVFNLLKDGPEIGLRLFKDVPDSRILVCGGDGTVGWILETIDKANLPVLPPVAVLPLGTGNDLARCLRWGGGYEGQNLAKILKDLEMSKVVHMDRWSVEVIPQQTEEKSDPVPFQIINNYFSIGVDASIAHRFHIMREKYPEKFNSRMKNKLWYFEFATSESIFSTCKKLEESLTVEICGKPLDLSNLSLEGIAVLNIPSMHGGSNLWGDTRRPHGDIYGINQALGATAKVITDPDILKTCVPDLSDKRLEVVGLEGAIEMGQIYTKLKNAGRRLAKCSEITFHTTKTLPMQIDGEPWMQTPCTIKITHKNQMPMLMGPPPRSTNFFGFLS

| SMILES | IC50 |
| --- | --- |
| Cc1nc2c(N3C[C@@H](C)N(C(c4ccc(F)cc4)c4ccc(F)cc4)C[C@@H]3C)nc(=O)[nH]c2n1C[C@@H]1CCCO1 | ≤ 10 nM |
| C[C@@H]1CN(c2nc(=O)n(C)c3c2nnn3C[C@H]2CCCO2)[C@@H](C)CN1C(c1ccc(C(F)(F)F)cn1)c1ccc(C(F)(F)F)cn1 | ≤ 10 nM |
| C[C@@H]1CN(c2nc(=O)n(C)c3c2ncn3CC2(O)CCC2)[C@@H](C)CN1C(c1ccc(Cl)cc1)C1CC(F)(F)C1 (stereo partly specified) | ≤ 10 nM |
| CC[C@@H]1CN(c2nc(=O)n(C)c3c2nc(C)n3C[C@@H]2CCCO2)[C@@H](C)CN1C(c1ccc(C(F)(F)F)cc1)C1CC(F)(F)C1 (stereo partly specified) | ≤ 10 nM |

Further lines, results first:

| IC50 | SMILES |
| --- | --- |
| ≤ 10 nM | C[C@@H]1CN(c2nc(=O)n(C)c3c2nnn3C[C@H]2CCCO2)[C@@H](C)CN1C(c1ccc(F)cc1)c1ccc(F)cc1 |
| ≤ 10 nM | C[C@@H]1CN(c2nc(=O)n(C)c3c2cnn3C)[C@@H](C)CN1C(c1ccc(F)cc1)c1ccc(F)cc1 |
